Source: US12098147B2, “Compound having novel structure, complex comprising same, anti-cancer pharmaceutical composition, and anti-cancer drug” (ETNOVA THERAPEUTICS CORP., priority 2018, dated 2024)
Like-named read-outs stand apart in the source and are kept apart here.

How the values were obtained:
NE-4C = assay: CCK-8 cell viability, NE-4C neural stem cell line; format: cell-based; conditions: for IC50: serum-free medium, 24 hours, CCK-8, mean ± SD of 2 to 3 experiments, read-out: IC50 NC-4C (Neural stem cell); for toxicity against brain neurons, in words: brain neurons (NE-4C), FIG. 4
Method: (§1) CCK-8 (Cell counting kit-8) is analyzed using a highly water-soluble tetrazolium salt-[…]. [2-(2-methoxy-4-nitrophenyl)-3-(4-nitrophenyl)(2,4-disulfophenyl)-2H-tetrazolium, monosodium salt] is reduced under the presence of an electron medium to produces a water-soluble formazan orange dye. The amount of the formazan dye produced by dehydrogenase in a cell is directly proportional to the number of living cells.
(§2) In an experimental method for evaluating the properties of the compounds according to the present disclosure, various cancer cell lines derived from humans and normal cell lines of each tissue derived from humans and mice were used in this experiment. A complete growth medium corresponding to each cell line and having 10% of heat-inactivated FBS added thereto was used to maintain corresponding cells. The maintained cells were suspended in a volume of 200 μl at a density of 1 or 1.5×10^4 cells and planted in each well of a 96 well plate. The cells were attached to a 37° C. and 5% CO2 incubator for more than 14 hours, and we waited for a stable state. The next day, we removed the medium from the well. 100 μl of serum-free medium containing drugs of various concentrations (0 (control), 2.5, 5, 10, 20, 30, 40, 50, 100, 200 μM) was added to each well and the cells was cultured therein. On 22 hours after the incubation, 10 μl of CCK-8 solution was added to each well, followed by incubation for 2 hours. A plate on which the culture was completed was measured in terms of absorbance at 450 nm using a microplate reader.
(§3) Cell Viability Calculation:
(§4) • A: Absorbance value measured in a control well • B: Absorbance value measured in a well containing the drug
(§5) In Table 1 below, each compound was applied to the cells at 0, 2.5, 5, 10, 20, 30, 40, 50, 100, and 200 μM, and the cells was cultured in a medium free of serum for 24 hours. The measured absorbance value was converted to a % value based on a value of 0, such that a IC50 value was calculated. Each experiment was performed 2 to 3 times and a standard deviation value was obtained.

MDA-MB-231 = assay: CCK-8 cell viability, MDA-MB-231 breast cancer cell line; format: cell-based, human; conditions: 24 hours, mean ± SD of 2 to 3 experiments
Method: (§6) To identify the anticancer effect of the compounds L1, L2, and L3 according to Examples 1 to 3 of the present disclosure, and the complexes L1Pt, L2Pt, and L3Pt according to Examples 4 to 6 of the disclosure, the cell viability analysis of cancer cells using CCK-8 was performed on several cancer cell lines (colorectal cancer cell line (HT-29 cell line), breast cancer cell line (MCF-7 and MDA-MB-231), cervical cancer cell line (HeLa cell line), liver cancer cell line (Huh-7 and HepG2), brain glioma cell line (C6), lung cancer (A549), prostate cancer (PC3), kidney cancer (Caki-2), normal liver cell line (AML-12), embryonic kidney cell line (HEK-293), neural stem cell line (NE-4C) and normal breast epithelial cell line (MCF10a)).
as §1, §2, §3, §4, §5

Huh-7 = assay: CCK-8 cell viability, Huh-7 liver cancer cell line; format: cell-based, human; conditions: 24 hours, mean ± SD of 2 to 3 experiments
Method: as §6, §1, §2, §3, §4, §5

C6 = assay: CCK-8 cell viability, C6 brain glioma cell line; format: cell-based, human; conditions: 24 hours, mean ± SD of 2 to 3 experiments
Method: as §6, §1, §2, §3, §4, §5

MCF-7 = assay: CCK-8 cell viability, MCF-7 breast cancer cell line; format: cell-based, human; conditions: 24 hours, mean ± SD of 2 to 3 experiments
Method: as §6, §1, §2, §3, §4, §5

[1] = test system: several cancer cell lines; assay: CCK-8 cell viability, panel of cancer cell lines compared in words (FIGS. 3a to 3e); format: cell-based, human; conditions: for cell toxicity on cancer cell lines compared with BTA, in words / cell toxicity on cancer cell lines compared with cisplatin, in words: Log IC50 comparison, FIGS. 3a to 3e; for cell toxicity on cancer cell lines compared with BTA, in words: comparator BTA; for cell toxicity on cancer cell lines compared with cisplatin, in words: comparator cisplatin
Method: as §6, §1, §2
Further, FIGS. 3a to 3e show a graph in which a IC50 value which is obtained based on 2 to 3 times executions of the cell viability analysis is converted to a Log IC50 value. […] The comparative reliability values for BTA were expressed as […], ##p<0.01, and ## #p<0.001. A red line represents the value of cisplatin. A blue line represents the value of BTA.

MCF10a = assay: CCK-8 cell viability, MCF10a normal breast epithelial cell line; format: cell-based; conditions: for cytotoxicity against breast epithelial cells, in words: breast epithelial cells (MCF10a), FIG. 4; for IC50: serum-free medium, 24 hours, CCK-8, mean ± SD of 2 to 3 experiments
Method: as §6, §1, §2, §3, §4, §5

HepG2 = assay: CCK-8 cell viability, HepG2 liver cancer cell line; format: cell-based, human; conditions: 24 hours, mean ± SD of 2 to 3 experiments
Method: as §6, §1, §2, §3, §4, §5

HeLa cell line = assay: CCK-8 cell viability, HeLa cervical cancer cell line; format: cell-based, human; conditions: serum-free medium, 24 hours, mean ± SD of 2 to 3 experiments
Method: as §6, §1, §2, §3, §4, §5

AML12 = assay: CCK-8 cell viability, AML-12 normal liver cell line; format: cell-based; conditions: for toxicity against normal hepatocytes, in words: normal hepatocytes (AML12), FIG. 4; for IC50: serum-free medium, 24 hours, CCK-8, mean ± SD of 2 to 3 experiments
Method: as §1, §2, §3, §4, §5

A549 = assay: CCK-8 cell viability, A549 lung cancer cell line; format: cell-based, human; conditions: serum-free medium, 24 hours, mean ± SD of 2 to 3 experiments
Method: as §6, §1, §2, §3, §4, §5

HEK-293 = assay: CCK-8 cell viability, HEK-293 embryonic kidney cell line; format: cell-based; conditions: serum-free medium, 24 hours, mean ± SD of 2 to 3 experiments, read-out: IC50 HEK293 (embryonic kidney)
Method: as §6, §1, §2, §3, §4, §5

Caki-2 = assay: CCK-8 cell viability, Caki-2 kidney cancer cell line; format: cell-based, human; conditions: serum-free medium, 24 hours, mean ± SD of 2 to 3 experiments
Method: as §6, §1, §2, §3, §4, §5

PC3 = assay: CCK-8 cell viability, PC3 prostate cancer cell line; format: cell-based, human; conditions: serum-free medium, 24 hours, mean ± SD of 2 to 3 experiments
Method: as §6, §1, §2, §3, §4, §5

HT-29 cell line = assay: CCK-8 cell viability, HT-29 colorectal cancer cell line; format: cell-based, human; conditions: serum-free medium, 24 hours, mean ± SD of 2 to 3 experiments
Method: as §6, §1, §2, §3, §4, §5

[2] = Homo sapiens, MDA-MB-231, serum-free medium
[3] = Homo sapiens, Huh-7, serum-free medium
[4] = Rattus norvegicus, C6, serum-free medium
[5] = Homo sapiens, MCF7, serum-free medium

IC50 (MDA-MB-231; [2]) [µM] | IC50 (Huh-7; [3]) [µM] | IC50 (C6; [4]) [µM] | IC50 (MCF-7; [5]) [µM] | IC50 (HeLa cell line; Homo sapiens, HeLa) [µM] | SMILES | IC50 (NE-4C; Neural stem cell) [µM] | toxicity against brain neurons, in words (NE-4C) | cell toxicity on cancer cell lines compared with BTA, in words [1] | cell toxicity on cancer cell lines compared with cisplatin, in words [1] | cytotoxicity against breast epithelial cells, in words (MCF10a) | toxicity against normal hepatocytes, in words (AML12) | IC50 (NE-4C) [µM] | IC50 (MDA-MB-231; serum-free medium) [µM] | IC50 (Huh-7; serum-free medium) [µM] | IC50 (C6; serum-free medium) [µM] | IC50 (MCF-7; serum-free medium) [µM] | IC50 (MCF10a) [µM] | IC50 (A549) [µM] | IC50 (HepG2; serum-free medium) [µM] | IC50 (HeLa cell line) [µM] | other results
152 ± 19.9 | 95.9 ± 15 | 143 ± 32.7 | 98.2 ± 7.92 | 47.1 ± 6.07 | O=C(Nc1ccc(-c2nc3ccccc3s2)cc1)C(C/N=C/c1ccccc1O)/N=C/c1ccccc1O (centres unmarked) [Example L2, N-(4-benzothiazol-2-yl-phenyl)-2,3-bis-[(2-hydroxy-benzylidene)-amino]-propionamide] | 28.23 ± 0.06 | greater toxicity than BTA did | greater cell toxicity against colorectal cancer, breast cancer, liver cancer, brain glioma, lung cancer, prostate cancer, and kidney cancer than BTA did | greater toxic effect on cancer cell lines on lung cancer, prostate cancer, and kidney cancer than cisplatin did | weak cytotoxicity | did not exhibit liver cytotoxicity | – | – | – | – | – | – | – | – | – | IC50 (HepG2; Homo sapiens, HepG2, serum-free medium): 14.2 ± 7.06 µM
– | – | – | – | – | O=C(Nc1ccc(-c2nc3ccccc3s2)cc1)C1CN=Cc2ccccc2[O][Pt][O]c2ccccc2C=N1 (centres unmarked) [Example L2Pt] | – | greater toxicity than BTA did | greater cell toxicity on colorectal cancer than BTA did | – | weaker cytotoxicity or no cytotoxicity than cisplatin and BTA did | did not exhibit liver cytotoxicity | 47 ± 4.12 | > 500 | 197 ± 3.75 | > 500 | > 500 | > 500 | > 500 | 31.6 ± 3.62 | 221 ± 15.8 | IC50 (HEK-293): 212 ± 14.9 µM; IC50 (AML12): > 500 µM; IC50 (Caki-2): > 500 µM; IC50 (PC3): > 500 µM; IC50 (HT-29 cell line): 173 ± 3.23 µM
> 500 | 178 ± 2.6 | 142 ± 15.4 | 190 ± 16.6 | 99 ± 3.54 | O=C(Nc1ccc(-c2nc3ccccc3s2)cc1)C1CNC(c2ccccn2)=N1 (centres unmarked) [Example L3, N-(4-(benzo[d]thiazol-2-yl)phenyl)-2-(pyridin-2-yl)-4,5-dihydro-1H-imidazole-4-carboxamide] | 22.4 ± 2.44 | greater toxicity than BTA did | greater cell toxicity on colorectal cancer breast cancer and brain glioma than BTA did | greater cell toxicity on prostate cancer and kidney cancer than cisplatin did | weaker cytotoxicity or no cytotoxicity than cisplatin and BTA did | did not exhibit liver cytotoxicity | – | – | – | – | – | – | – | – | – | –
– | – | – | – | – | O=C(Nc1ccc(-c2nc3ccccc3s2)cc1)C1CNC(c2ccccn2)=N1.[Cl][Pt][Cl] (centres unmarked) [Example L3Pt] | – | greater toxicity than BTA did | – | – | weaker cytotoxicity or no cytotoxicity than cisplatin and BTA did | did not exhibit liver cytotoxicity | 32.4 ± 6.02 | > 500 | 173 ± 24.3 | > 500 | > 500 | > 500 | > 500 | > 500 | > 500 | effect on cancer cell lines, in words ([1]; Log IC50, FIGS. 3a to 3e, no comparator): only exerts cell toxicity effects on liver cancer; IC50 (HEK-293): 206 ± 7.45 µM; IC50 (AML12): > 500 µM; IC50 (Caki-2): > 500 µM; IC50 (PC3): > 500 µM; IC50 (HT-29 cell line): > 500 µM
